Measurements: US20080063628A1, “METHODS TO PROMOTE CELL DIFFERENTIATION” (priority 2006, published 2008)

Legend:
[1] = tested on: late passage (P14) pancreatic-derived stromal cells; assay: Trichostatin A 24 h time course, gene expression by Real-Time PCR (Example 3); assay type: cell-based, human; settings: 2.5 μM
Method: Human pancreatic-derived stromal cells were obtained according to the methods described in Example 13. Cells were seeded into a 24-well tissue culture plate at a density of 5000/cm^2 and cultured in DMEM containing 10% fetal bovine serum under standard cell culture conditions until confluent. After the cells reached confluency, 2.5 μM trichostatin A, diluted in DMSO and medium was added to the wells. Parallel cultures were treated with an equivalent concentration of DMSO as a vehicle control. RNA samples were obtained from treated cultures at 30 minutes, 1.5 hours, 3 hours, 6 hours, 12 hours and 24 hours following the addition of trichostatin A or DMSO. Culture medium was removed, the cells were washed with PBS, and RLT lysis buffer with β-mercaptoethanol (Qiagen) was added. RNA was purified using the RNeasy Mini Kit (Qiagen). RNA quantity and quality were determined using a spectrophotometer, and CDNA was made using the iScript cDNA synthesis kit (BioRad).
The expression levels of Sox17, HNF-3 beta, Pdx-1, insulin, and glucagon were determined by Real-Time PCR. Samples of 20 ng cDNA were used in each reaction, which was performed on the Applied Biosystems 7500 according to the methods described in Example 15. Data were analyzed using the accompanying software. Human pancreas cDNA was included as a positive control, and results were normalized against GAPDH expression levels.
Real-time PCR amplifcation and quantitative analysis. Unless otherwise stated, all reagents were purchased from Applied Biosystems. Real-time PCR reactions were performed using the ABI PRISM™ 7500 Sequence Detection System. TAQMAN™ FAST UNIVERSAL PCR MASTER MIX™ (ABI, CA) was used with 20 ng of reverse transcribed RNA in a total reaction volume of 20 μl. Each cDNA sample was run in duplicate to allow correction of pipetting errors. Primers and FAM-labeled TAQMAN™ probes were used at concentrations of 200 nM. The level of expression for each target gene was normalized using the pre-developed Applied Biosystem's human glyceraldehyde-3-phosphate dehydrogenase (GAPDH) endogenous control kit. Primers and probes were designed using either ABI PRISM PRIMER EXPRESS™ software or a pre-developed ABI gene analysis kit. For each gene, either one of the primers or the probe were designed to be exon-boundary spanning. This eliminated the possibility of the primers/probe binding to any genomic DNA present. The primer and probe sets are listed as follows: Pdx-1 (Hs00426216), Insulin (Hs00355773), glucagon (Hs00174967), and FoxA2 (HNF 3-beta) (Hs00232764). The remaining primers were designed using the PRIMERS program (ABI, CA). After an initial 95° C. incubation for 20 sec, samples were cycled 40 times in two stages: a denaturation step at 95° C. for 3 sec, followed by an annealing/extension step at 60° C. for 30 sec.
For each primer/probe set, a cycle time value was determined as the cycle number at which the fluorescence intensity of the PCR reaction reached a specific value in the middle of the exponential region of amplification. An increase in expression of a gene corresponded to a decrease in the number of cycles required for the fluorescence intensity to reach this value.

[2] = tested on: PHA treated PBMCs containing activated T-lymphocytes; assay: Trichostatin A treatment of PBMCs, gene expression by RT-PCR (Example 20); assay type: cell-based, human; settings: 5 μM
Description: Human peripheral blood mononuclear cells (PBMCs) were isolated from whole blood using Histopaque (Sigma) gradients and standard density centrifugation. PBMCs are a heterogeneous mixture of lymphoid cells including quiescent T-lymphocytes. Cells were washed thoroughly, counted, and resuspended at 1-2×10^6 cells per ml in culture medium containing RPMI-1640 and 10% FCS. Phytohemagglutinin (PHA; Sigma) is a mitogenic lectin that specifically induces T-lymphocyte activation and proliferation. PHA was added to the cell suspension at a final concentration of 10 μg/ml, and PBMCs were cultured for 3 days at 37° C. with 5% CO2. […] At the end of culture, PBMCs were pooled to harvest, washed thoroughly, and resuspended in fresh culture medium with 5 μM trichostatin A diluted in DMSO. A control culture of PHA-treated PBMCs received an equivalent dilution of DMSO alone. Cells were returned to culture for an additional 24 or 48 hours. Alternatively, resting PBMCs were isolated in a similar manner and cultured for 24 or 48 hours total incubation time with either 5 μM trichostatin A or DMSO alone. At the conclusion of culture, cells were harvested and washed with PBS prior to preparation of RNA in RLT lysis buffer with β-mercaptoethanol (Qiagen). RNA was purified using the RNeasy Mini Kit (Qiagen); RNA quantity and quality were determined using a spectrophotometer. CDNA was made using the iScript CDNA synthesis kit (BioRad). Samples of 20 ng CDNA were used in each RT-PCR reaction, performed on the Applied Biosystems 7500. Results were normalized against GAPDH expression levels with data analysis performed using the accompanying software.

[3] = 24 hrs, after 3 days PHA 10 μg/ml
[4] = 48 hours, after 3 days PHA 10 μg/ml

For `CC(/C=C/C(=O)NO)=C\[C@@H](C)C(=O)c1ccc(N(C)C)cc1` [trichostatin A], the HNF-3 beta gene expression ([1]; 0.5 h) was “nd (not detectable at >40 cycles by RT-PCR)”, the Insulin gene expression ([1]; 0.5 h) was “nd (not detectable at >40 cycles by RT-PCR)” and the PDX-1 gene expression ([1]; 0.5 h) was “nd (not detectable at >40 cycles by RT-PCR)”. For the same molecule, the Sox17 gene expression ([1]; 0.5 h) was “+ (detectable between 35 and 40 cycles by RT-PCR)”, the glucagon gene expression ([1]; 0.5 h) was “nd (not detectable at >40 cycles by RT-PCR)” and the HNF-3 beta gene expression ([1]; 1.5 h) was “nd (not detectable at >40 cycles by RT-PCR)”. For the same molecule, the Insulin gene expression ([1]; 1.5 h) was “nd (not detectable at >40 cycles by RT-PCR)”, the PDX-1 gene expression ([1]; 1.5 h) was “nd (not detectable at >40 cycles by RT-PCR)” and the Sox17 gene expression ([1]; 1.5 h) was “nd (not detectable at >40 cycles by RT-PCR)”. For the same molecule, the glucagon gene expression ([1]; 1.5 h) was “nd (not detectable at >40 cycles by RT-PCR)”, the HNF-3 beta gene expression ([1]; 3 h) was “nd (not detectable at >40 cycles by RT-PCR)” and the Insulin gene expression ([1]; 3 h) was “nd (not detectable at >40 cycles by RT-PCR)”. For the same molecule, the PDX-1 gene expression ([1]; 3 h) was “nd (not detectable at >40 cycles by RT-PCR)”, the Sox17 gene expression ([1]; 3 h) was “+ (detectable between 35 and 40 cycles by RT-PCR)” and the glucagon gene expression ([1]; 3 h) was “nd (not detectable at >40 cycles by RT-PCR)”. For the same molecule, the “Sox-17 RT-PCR detection cycle” value ([1]; 3 hours) was greater than 35 cycles, the HNF-3 beta gene expression ([1]; 6 h) was “+ (detectable between 35 and 40 cycles by RT-PCR)” and the Insulin gene expression ([1]; 6 h) was “nd (not detectable at >40 cycles by RT-PCR)”. For the same molecule, the PDX-1 gene expression ([1]; 6 h) was “nd (not detectable at >40 cycles by RT-PCR)”, the Sox17 gene expression ([1]; 6 h) was “+ (detectable between 35 and 40 cycles by RT-PCR)” and the glucagon gene expression ([1]; 6 h) was “nd (not detectable at >40 cycles by RT-PCR)”. For the same molecule, the “HNF-3 beta RT-PCR detection cycle” value ([1]; 6 hours) was greater than 35 cycles, the HNF-3 beta gene expression ([1]; 12 h) was “+ (detectable between 35 and 40 cycles by RT-PCR)” and the Insulin gene expression ([1]; 12 h) was “nd (not detectable at >40 cycles by RT-PCR)”. The PDX-1 gene expression ([1]; 12 h) was “+ (detectable between 35 and 40 cycles by RT-PCR)”, the Sox17 gene expression ([1]; 12 h) was “+ (detectable between 35 and 40 cycles by RT-PCR)” and the glucagon gene expression ([1]; 12 h) was “nd (not detectable at >40 cycles by RT-PCR)”. The “Pdx-1 RT-PCR detection cycle” value ([1]; 12 hours) was greater than 35 cycles, the HNF-3 beta gene expression ([1]; 24 h) was “+++ (detectable at less than 35 cycles by RT-PCR with std error less than 0.9)” and the Insulin gene expression ([1]; 24 h) was “nd (not detectable at >40 cycles by RT-PCR)”. The PDX-1 gene expression ([1]; 24 h) was “+++ (detectable at less than 35 cycles by RT-PCR with std error less than 0.9)”, the Sox17 gene expression ([1]; 24 h) was “+++ (detectable at less than 35 cycles by RT-PCR with std error less than 0.9)” and the glucagon gene expression ([1]; 24 h) was “+ (detectable between 35 and 40 cycles by RT-PCR)”. The “HNF-3 beta RT-PCR detection cycle” value ([1]; 24 hours) was less than 35 cycles, the “HNF-3 beta gene expression relative to human pancreas” value ([1]; 24 hours) was ~0.075 % of human pancreas and the “Pdx-1 RT-PCR detection cycle” value ([1]; 24 hours) was less than 35 cycles. For the same molecule, the “Pdx-1 gene expression relative to human pancreas” value ([1]; 24 hours) was ~0.2 % of human pancreas levels, the “Sox-17 RT-PCR detection cycle” value ([1]; 24 hours) was less than 35 cycles and the “Sox-17 gene expression relative to human pancreas” value ([1]; 24 hours) was ~3 % of human pancreas levels. The “glucagon RT-PCR detection cycle” value ([1]; 24 hours) was 35-40 cycles, the HNF-3 beta expression ([2]; 24 or 48 hours) was “negative” and the Sox17 expression ([2]; 24 or 48 hours) was “negative”. The glucagon expression ([2]; 24 or 48 hours) was “negative”, the insulin expression ([2]; 24 or 48 hours) was “negative” and the somatostatin expression ([2]; 24 or 48 hours) was “negative”. For the same molecule, the GAPDH gene expression [2, 3] was “+++ (detectable at less than 35 cycles by RT-PCR with SE less than 0.9)”, the GATA4 gene expression [2, 3] was “+++ (detectable at less than 35 cycles by RT-PCR with SE less than 0.9)” and the Gata1 gene expression [2, 3] was “nd (not detectable at >40 cycles by RT-PCR)”. The Pdx-1 gene expression [2, 3] was “+ (detectable at greater than 35–40 cycles by RT-PCR)”, the GATA4 gene expression [2, 4] was “+++ (detectable at less than 35 cycles by RT-PCR with SE less than 0.9)” and the Gata1 gene expression [2, 4] was “nd (not detectable at >40 cycles by RT-PCR)”. The Pdx-1 gene expression [2, 4] was “+ (detectable at greater than 35–40 cycles by RT-PCR)”.
